From PubChem BioAssay (NCI) come the findings set out here.

Among the test systems are ACHN renal; CAKI-1 renal; M14 melanoma; MOLT-4 leukemia; NCI-H460 lung; NCI/ADR-RES ovarian; SF-268 CNS; SN12C renal; SW-620 colon; U251 CNS; UO-31 renal.
What all share (assay): NCI-60 cell line screen, 48 h

Molecules are shown by their SMILES.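 These data come from cells grown in 96-well plates and exposed to compound for 48 hours at five concentrations. TGI: concentration producing complete growth inhibition.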 Where only a bound is given, the exact number is not on record here.

For `NC(=O)c1ccc(N)nc1`, the TGI in the experiment on ACHN renal, with CAKI-1 renal, in the experiment on M14 melanoma, in the experiment with MOLT-4 leukemia, with NCI-H460 lung and in the experiment with NCI/ADR-RES ovarian was greater than 400 µM each time. The TGI in the experiment on SF-268 CNS, in the experiment with SN12C renal, in the experiment with SW-620 colon, in the experiment on U251 CNS and in the experiment with UO-31 renal was greater than 400 µM in each case.

With `CN(C)CCNc1ccccn1`, the TGI in the experiment with ACHN renal, with CAKI-1 renal, in the experiment with M14 melanoma, with MOLT-4 leukemia, with NCI-H460 lung and in the experiment on NCI/ADR-RES ovarian was greater than 100 µM in each case. Besides, the TGI in the experiment with SF-268 CNS, in the experiment on SN12C renal, in the experiment with SW-620 colon, in the experiment with U251 CNS and with UO-31 renal was greater than 100 µM throughout.

For `CS(=O)(=O)c1ccc(C2=C(c3ccccc3)C(=O)OC2)cc1`, the TGI in the experiment with ACHN renal, in the experiment on CAKI-1 renal, in the experiment with M14 melanoma, in the experiment with MOLT-4 leukemia, in the experiment on NCI-H460 lung and with NCI/ADR-RES ovarian was greater than 100 µM in each case. Besides, the TGI in the experiment with SF-268 CNS, in the experiment with SN12C renal, with SW-620 colon, in the experiment with U251 CNS and in the experiment with UO-31 renal was greater than 100 µM in each case.

With `CC(C)OCC(O)COc1cc(=O)oc2ccccc12` (centres undefined), the TGI with ACHN renal, in the experiment on CAKI-1 renal, with M14 melanoma, with MOLT-4 leukemia, with NCI-H460 lung and with NCI/ADR-RES ovarian was greater than 100 µM each time. For the same compound, the TGI in the experiment with SF-268 CNS, in the experiment with SN12C renal, with SW-620 colon, in the experiment with U251 CNS and in the experiment with UO-31 renal was greater than 100 µM each time.

Take `COc1ccc(/C=C/C=C2C(=O)NC(=S)NC2=O)cc1`: the TGI was found to be 16.7 µM with ACHN renal; 23.8 µM with CAKI-1 renal; 21.7 µM in the experiment with M14 melanoma; 10 µM in the experiment with MOLT-4 leukemia; 30.6 µM in the experiment with NCI-H460 lung; 12.3 µM with NCI/ADR-RES ovarian. In addition, the TGI worked out at 26.8 µM in the experiment with SF-268 CNS; 19.5 µM in the experiment on SN12C renal; 3.37 µM in the experiment on SW-620 colon; 5.1 µM in the experiment on U251 CNS; 19.9 µM in the experiment with UO-31 renal.

Turning to `CC(C)=CCC[C@@H](C)c1c(O)c(O)c(C)c2nc3ccccc3nc12`, the TGI in the experiment with ACHN renal is 5.64 µM; in the experiment with CAKI-1 renal it was 9.01 µM; with M14 melanoma, 12.9 µM; with MOLT-4 leukemia it was greater than 27.9 µM; with NCI-H460 lung, 32.4 µM; in the experiment on NCI/ADR-RES ovarian, 7.48 µM. In addition, the TGI in the experiment with SF-268 CNS is 7.22 µM; in the experiment on SN12C renal, 6.38 µM; in the experiment with SW-620 colon it was greater than 100 µM; with U251 CNS, 22.8 µM; in the experiment with UO-31 renal, 5.61 µM.

On to `Cc1cc([C@H](C#N)c2nc3ccccc3s2)nc(Cl)n1`, for which the TGI in the experiment on ACHN renal is 78.5 µM; in the experiment with CAKI-1 renal it was 31 µM; in the experiment with M14 melanoma it was 79.2 µM; with MOLT-4 leukemia it was greater than 100 µM; in the experiment with NCI-H460 lung, 15.3 µM; with NCI/ADR-RES ovarian, 10.8 µM. In addition, the TGI in the experiment on SF-268 CNS was 24 µM; in the experiment with SN12C renal it was greater than 100 µM; in the experiment with SW-620 colon it was 15.1 µM; with U251 CNS, 12.4 µM; in the experiment on UO-31 renal, 21.3 µM.

As for `CN(CCN(C)Cc1ccc(Cl)c(Cl)c1)CCN1CCCC1`, the TGI with ACHN renal is greater than 100 µM; in the experiment on CAKI-1 renal, greater than 100 µM; with M14 melanoma, greater than 54.4 µM; in the experiment on MOLT-4 leukemia it was greater than 72.4 µM; with NCI-H460 lung, greater than 100 µM; in the experiment on NCI/ADR-RES ovarian, greater than 100 µM. For the same compound, the TGI was greater than 100 µM in the experiment with SF-268 CNS; greater than 100 µM in the experiment with SN12C renal; greater than 100 µM in the experiment with SW-620 colon; greater than 100 µM with U251 CNS; 36 µM in the experiment on UO-31 renal.

In the case of `O=c1[nH]c(=O)n(COCCO)cc1-c1ccccc1`, the TGI in the experiment on ACHN renal, in the experiment on CAKI-1 renal, with M14 melanoma, in the experiment on MOLT-4 leukemia, in the experiment on NCI-H460 lung and in the experiment on NCI/ADR-RES ovarian was greater than 100 µM each time. The TGI in the experiment on SF-268 CNS, with SN12C renal, with SW-620 colon, in the experiment on U251 CNS and in the experiment with UO-31 renal was greater than 100 µM throughout.

On to `CSc1nc(NC2CC2)c2c(n1)Sc1nc3ccccc3n1N=C2`, for which the TGI is 31.1 µM in the experiment with ACHN renal; greater than 100 µM with CAKI-1 renal; greater than 100 µM with M14 melanoma; greater than 100 µM with MOLT-4 leukemia; greater than 100 µM in the experiment with NCI-H460 lung; 69.7 µM in the experiment with NCI/ADR-RES ovarian. For the same compound, the TGI is 80.7 µM in the experiment on SF-268 CNS; 33.4 µM in the experiment on SN12C renal; greater than 100 µM in the experiment with SW-620 colon; 61.8 µM in the experiment with U251 CNS; 44.4 µM in the experiment with UO-31 renal.

Turning to `O=C(NCCc1ccc(F)cc1)c1cc(/C=C/c2cc(O)ccc2O)ccc1O`, the TGI amounted to 4.25 µM in the experiment with ACHN renal; 15 µM in the experiment on CAKI-1 renal; 12.5 µM in the experiment on M14 melanoma; 6.99 µM with MOLT-4 leukemia; 40 µM with NCI-H460 lung; 10.7 µM in the experiment on NCI/ADR-RES ovarian. The TGI is 12.2 µM with SF-268 CNS; 21.1 µM with SN12C renal; greater than 100 µM in the experiment with SW-620 colon; 4.49 µM in the experiment on U251 CNS; 3.07 µM in the experiment on UO-31 renal.

Take `COc1cc(C(C)(C)C)c(OC(=O)/C=C/C(=O)O/C=C/[N+](=O)[O-])c(C(C)(C)C)c1`: the TGI is greater than 100 µM in the experiment on ACHN renal; 57.5 µM in the experiment on CAKI-1 renal; 65.6 µM with M14 melanoma; greater than 100 µM in the experiment on MOLT-4 leukemia; greater than 100 µM in the experiment on NCI-H460 lung; 57.8 µM with NCI/ADR-RES ovarian. The TGI in the experiment on SF-268 CNS is 75.7 µM; with SN12C renal it was greater than 100 µM; in the experiment on SW-620 colon, greater than 100 µM; with U251 CNS it was greater than 100 µM; in the experiment on UO-31 renal, 76.9 µM.

Turning to `COC(=O)/C=C1\C(=O)N(C(C)=O)c2ccccc21`, the TGI in the experiment with ACHN renal is 20.1 µM; in the experiment on CAKI-1 renal, 0.184 µM; in the experiment on M14 melanoma, 58.7 µM; in the experiment on MOLT-4 leukemia, 31.4 µM; in the experiment with NCI-H460 lung, 27.1 µM; in the experiment with NCI/ADR-RES ovarian, 62.8 µM. Also, the TGI in the experiment with SF-268 CNS was greater than 61.3 µM; in the experiment on SN12C renal, 24.3 µM; in the experiment with SW-620 colon, greater than 100 µM; with U251 CNS it was 37.2 µM; in the experiment with UO-31 renal, 26.4 µM.

With `C/C(=C/CC[C@](C)(OC1OC(CO)C(O)C(O)C1OC1OC(C)C(O)C(O)C1O)[C@H]1CC[C@]2(C)[C@@H]1CC[C@@H]1[C@@]3(C)CC[C@H](O)C(C)(C)[C@@H]3C[C@H](O)[C@]12C)CO` (some centres undefined), the TGI in the experiment with ACHN renal, in the experiment with CAKI-1 renal, in the experiment on M14 melanoma, in the experiment on MOLT-4 leukemia, in the experiment on NCI-H460 lung and with NCI/ADR-RES ovarian was greater than 100 µM in each case. The TGI with SF-268 CNS, in the experiment on SN12C renal, in the experiment with SW-620 colon, in the experiment on U251 CNS and in the experiment on UO-31 renal was greater than 100 µM in each case.

As for `CCOC(=O)C(C(N)=O)c1nc2cc([N+](=O)[O-])ccc2nc1/C=C(\O)c1ccc(C)cc1` (centres undefined), the TGI was greater than 52.6 µM in the experiment on ACHN renal; greater than 100 µM with CAKI-1 renal; greater than 100 µM in the experiment with M14 melanoma; 1.39 µM with MOLT-4 leukemia; 58.1 µM in the experiment with NCI-H460 lung; 53 µM with NCI/ADR-RES ovarian. Besides, the TGI is 35.8 µM in the experiment with SF-268 CNS; 85.5 µM in the experiment on SN12C renal; greater than 92.3 µM in the experiment with SW-620 colon; 33.5 µM in the experiment with U251 CNS; 49 µM in the experiment with UO-31 renal.

For `NC1=CN2c3ccccc3N(CC(=O)N3CCOCC3)C2C=C1` (centres undefined), the TGI with ACHN renal, in the experiment on CAKI-1 renal, in the experiment with M14 melanoma, in the experiment on MOLT-4 leukemia, in the experiment with NCI-H460 lung and in the experiment with NCI/ADR-RES ovarian was greater than 100 µM throughout. For the same compound, the TGI in the experiment on SF-268 CNS, in the experiment with SN12C renal, in the experiment with SW-620 colon, in the experiment with U251 CNS and in the experiment with UO-31 renal was greater than 100 µM each time.

Turning to `O=C(NC12CC3CC(CC(C3)C1)C2)n1cnc2cncnc21`, the TGI in the experiment on ACHN renal, with CAKI-1 renal, with M14 melanoma, in the experiment on MOLT-4 leukemia, in the experiment on NCI-H460 lung and in the experiment on NCI/ADR-RES ovarian was greater than 100 µM throughout. For the same compound, the TGI in the experiment with SF-268 CNS, in the experiment on SN12C renal, in the experiment with SW-620 colon, with U251 CNS and in the experiment with UO-31 renal was greater than 100 µM in each case.

Consider `C/C(=N\NC(=S)N/N=C(\C)c1ccccn1)c1ccccn1`, for which the TGI in the experiment on ACHN renal was 5.7 µM; in the experiment on CAKI-1 renal, 5.24 µM; with M14 melanoma, 4.88 µM; with MOLT-4 leukemia, 5.9 µM; with NCI-H460 lung, 6.46 µM; in the experiment on NCI/ADR-RES ovarian it was 27 µM. Besides, the TGI with SF-268 CNS is 16.3 µM; in the experiment with SN12C renal, greater than 100 µM; with SW-620 colon it was greater than 100 µM; with U251 CNS, greater than 100 µM; in the experiment on UO-31 renal, 5.31 µM.

On to `Cc1cc(C)c2c(=O)n(CC(O)CN3CCN(c4ncccn4)CC3)sc2n1` (centres undefined), for which the TGI worked out at 32.4 µM with ACHN renal; 39.5 µM in the experiment with CAKI-1 renal; 29.1 µM in the experiment on M14 melanoma; 22.6 µM with MOLT-4 leukemia; 31.2 µM in the experiment on NCI-H460 lung; 78 µM with NCI/ADR-RES ovarian. In addition, the TGI with SF-268 CNS amounted to 32.6 µM; in the experiment on SN12C renal, 31.6 µM; in the experiment with SW-620 colon it was 60.7 µM; in the experiment on U251 CNS, 31.7 µM; in the experiment on UO-31 renal, 30 µM.
